In patent US9204653B2, “5-fluoro pyrimidine derivatives” (DOW AGROSCIENCES LLC, priority 2008, dated 2015):
Like-named read-outs stand apart in the source and are kept apart here.

Test system: Mycosphaerella graminicola; Anamorph: Septoria tritici; Bayer Code SEPTTR
Assay: Leaf blotch of wheat, foliar fungicide treatment, one day protectant (1DP) or three day curative (3DC)
Assay type: in vivo, Septoria tritici on wheat plants (variety Yuma)
Conditions: Zymoseptoria tritici
[1] = 24 h, one day protectant (1DP), 25 ppm, rating of percent disease control, read-out: SETTTR 1DP 25 ppm
[2] = 24 h, one day protectant (1DP), rating of percent disease control, read-out: SEPTTR 1DP 100 ppm
[3] = 72 h, three day curative (3DC), 25 ppm, rating of percent disease control, read-out: SEPTTR 3DC 25 ppm
[4] = 72 h, three day curative (3DC), rating of percent disease control, read-out: SEPTTR 3DC 100 ppm
[5] = 24 h, one day protectant (1DP), 25 ppm, percent disease control rating, read-out: SETTTR 1DP 25 ppm
[6] = 24 h, one day protectant (1DP), percent disease control rating, read-out: SEPTTR 1DP 100 ppm
[7] = 72 h, three day curative (3DC), 25 ppm, percent disease control rating, read-out: SEPTTR 3DC 25 ppm
[8] = 72 h, three day curative (3DC), percent disease control rating, read-out: SEPTTR 3DC 100 ppm
[9] = 24 h, one day protectant (1DP), 25 ppm (first 1DP column), percent control rating, read-out: SETTTR 1DP 25 ppm
[10] = 24 h, one day protectant (1DP), 25 ppm as printed (second 1DP column), percent control rating, read-out: SETTTR 1DP 25 ppm
[11] = 72 h, three day curative (3DC), 25 ppm, percent control rating, read-out: SEPTTR 3DC 25 ppm
[12] = 72 h, three day curative (3DC), percent control rating, read-out: SEPTTR 3DC 100 ppm
[13] = 24 h, % disease control rating, one day protectant

Row | SMILES | pest or weed control at 25 ppm [1] [%] | pest or weed control at 100 ppm [2] [%] | pest or weed control at 25 ppm [3] [%] | pest or weed control at 100 ppm [4] [%] | pest or weed control at 25 ppm [9] [%] | pest or weed control at 25 ppm [10] [%] | pest or weed control at 25 ppm [11] [%] | pest or weed control at 100 ppm [12] [%] | also measured
1 | CCCNC(=O)Nc1nc(OCc2ccc(C)cc2)ncc1F [Compound 536] | 0 to 25 | 0 to 25 | 26 to 50 | 26 to 50 |  |  |  |  | 
2 | ONc1nc(OCc2ccc(F)cc2)ncc1F [Compound 138] |  |  |  |  |  |  |  |  | pest or weed control at 25 ppm [5]: 76 to 100%; pest or weed control at 100 ppm [6]: 76 to 100%; pest or weed control at 25 ppm [7]: 76 to 100%; pest or weed control at 100 ppm [8]: 76 to 100%
3 | CCS(=O)(=O)Nc1nc(O)ncc1F [Compound 1105] |  |  |  |  | 0 to 25 | 0 to 25 | 0 to 25 | 0 to 25 | 
4 | Fc1ccc(COc2ncc(F)c(/N=C/N3CCOCC3)n2)cc1 [Compound 795] | 76 to 100 | 76 to 100 | 76 to 100 | 76 to 100 |  |  |  |  | 
5 | C=CCOc1ncc(F)c(NNc2cc(C)ccc2C)n1 [Compound 1074] |  |  |  |  | 0 to 25 | 0 to 25 | 0 to 25 | 26 to 50 | 
6 | CC(Oc1ncc(F)c(NC(=O)OCc2ccccc2)n1)c1ccc(F)cc1 (stereo not drawn) [Compound 771] | 76 to 100 | 76 to 100 | 76 to 100 | 76 to 100 |  |  |  |  | 
7 | Fc1cnc(OCc2ccc(Cl)cc2)nc1NCC(F)(F)F [Compound 885] |  |  |  |  |  |  |  |  | pest or weed control at 50 ppm (24 h, % disease control rating, one day protectant, 50 ppm): 26 to 50%; pest or weed control at 200 ppm [13]: 51 to 75%
8 | COc1ccccc1COc1ncc(F)c(NCc2cccs2)n1 [Compound 869] |  |  |  |  |  |  |  |  | pest or weed control at 200 ppm [13]: 76 to 100%
9 | CC(C)(C)C(=O)OCNc1nc(OCc2ccc(F)cc2)ncc1F [Compound 19, 2,2-Dimethylpropionic acid[5-fluoro-2-(4-fluorobenzyloxy)pyrimidin-4-ylamino]methyl ester] |  |  |  |  |  |  |  |  | pest or weed control at 25 ppm [5]: 76 to 100%; pest or weed control at 100 ppm [6]: 76 to 100%; pest or weed control at 25 ppm [7]: 51 to 75%; pest or weed control at 100 ppm [8]: 76 to 100%
10 | Nc1nc(OCc2ccnc3ccccc23)ncc1F [Compound 401] | 76 to 100 | 76 to 100 | 76 to 100 | 76 to 100 |  |  |  |  | 
11 | Fc1ccc(COc2ncc(F)c(NC3CCCCC3)n2)cc1 [Compound 205] | 0 to 25 | 0 to 25 | 0 to 25 | 51 to 75 |  |  |  |  | 
12 | Cc1ccc(COc2ncc(F)c(NS(=O)(=O)c3ccccc3)n2)cc1 [Compound 994] |  |  |  |  | 0 to 25 | 26 to 50 | 0 to 25 | 0 to 25 | 
13 | Fc1cnc(OCc2ccccc2)nc1NNc1ccc(Cl)c(Cl)c1 [Compound 1037] |  |  |  |  | 0 to 25 | 26 to 50 | 0 to 25 | 0 to 25 | 
14 | COc1ncc(F)c(N/N=C/c2cc(C)nn2C)n1 [Compound 1020] |  |  |  |  | 0 to 25 | 0 to 25 | 26 to 50 | 0 to 25 | 
15 | CCCNC(=O)Nc1nc(OCc2ccc(F)cc2)ncc1F [Compound 186] | 51 to 75 | 51 to 75 | 0 to 25 | 0 to 25 |  |  |  |  | 
16 | O=[N+]([O-])c1ccccc1SNc1nc(OCc2ccc(F)c(F)c2)ncc1F [Compound 324] | 76 to 100 | 76 to 100 | 0 to 25 | 26 to 50 |  |  |  |  | 
17 | CN(C)/C=N/c1nc(OC(=O)Oc2ccccc2)ncc1F [Compound 669] |  |  |  |  |  |  |  |  | pest or weed control at 25 ppm (24 h, one day protectant, 25 ppm, rating of percent disease control, read-out: SETTTR 1DP 25 ppm): 76 to 100%; pest or weed control at 100 ppm (24 h, one day protectant, rating of percent disease control, read-out: SEPTTR 1DP 100 ppm): 76 to 100%; pest or weed control at 25 ppm (72 h, three day curative, 25 ppm, rating of percent disease control, read-out: SEPTTR 3DC 25 ppm): 76 to 100%; pest or weed control at 100 ppm (72 h, three day curative, rating of percent disease control, read-out: SEPTTR 3DC 100 ppm): 76 to 100%
18 | Cc1ccc(COc2ncc(F)c(NC(=O)Cc3ccccc3)n2)cc1 [Compound 497] | 51 to 75 | 76 to 100 | 0 to 25 | 26 to 50 |  |  |  |  | 
19 | COCNc1nc(OCc2ccc(F)cc2)ncc1F [Compound 362] | 51 to 75 | 76 to 100 | 51 to 75 | 76 to 100 |  |  |  |  | 
20 | COc1ncc(F)c(N/N=C(\C)c2ccc(F)cc2)n1 [Compound 1026] |  |  |  |  | 26 to 50 | 26 to 50 | 0 to 25 | 26 to 50 | 
